Source: US6228877A, “Substituted pyrroles” (Hoffmann-La Roche Inc., priority 1998, dated 2001)

System: epithelial breast carcinoma cell line (MDAMB-435)
Experiment: effect of compounds on growth of epithelial breast carcinoma cell line MDAMB-435 (MTT, 5 days)
Type: cell-based
Conditions: Homo sapiens, MDA-MB-435, 120 h, MDAMB-435 cells, 5 days post drug addition, 0.1% DMSO
Protocol: The epithelial breast carcinoma cell line (MDAMB-435) was purchased from ATCC (American Type Cell Culture Collection) and was grown in culture in medium as recommended by ATCC. For analysis of the effect of various compounds on growth of these cells, the cells were plated at a concentration of 1500 cells/well in a 96 well tissue culture plate ("test plate). The day after the cells were plated, the compounds to be analyzed were dissolved in 100% DMSO (dimethyl sulfoxide) to yield at 10 mM stock solution. Each compound was diluted in H2 O to 1 mM and was added to triplicate wells in the first row of a 96 well master plate which contains medium to yield a final concentration of 40 μM. The compounds were then serially diluted in medium in the "master plate". The diluted compound(s) were then transferred to test plates containing cells. A row of vehicle "control cells" received DMSO. The final concentration of DMSO in each well was 0.1%. 5 days post drug addition, the plate was analyzed as follows:
MTT (3-(4-5 methyl thiazole-2-yl)-2,5-diphenyl tetrazolium bromide; thiazolyl blue) was added to each well to yield a final concentration of 1 mg/ml. The plate was then incubated at 37° C. for 21/2-3 hours. The MTT containing medium was then removed and 50 μl of 100% ethanol was added to each well to dissolve the formazan. The absorbences were then read using an automated plate reader (Bio-tek microplate reader).
IC50 's were calculated using the Reed and Munsch equation, see Am. J. Hygiene Vol. 27 pgs. 493-497, 1938.

Row | SMILES | IC50
1 | Cn1cc(C2=C(c3cn(C)c4cc(C#N)ccc34)C(=O)NC2=O)c2ccc(N)cc21 [H H NH2 CN, 3-[4-(6-Amino-1-methyl-1H-indol-3-yl)-2,5-dioxo-2,5-dihydro-1H-pyrrol-3-yl]-1-methyl-1H-indole-6-carbonitrile] | < 0.01 µM
2 | Cn1cc(C2=C(c3cn(C)c4cc([N+](=O)[O-])ccc34)C(=O)NC2=O)c2cc(C#N)ccc21 [H CN H NO2, 1-Methyl-3-[4-(1-methyl-6-nitro-1H-indol-3-yl)-2,5-dioxo-2,5-dihydro-1H-pyrrol-3-yl]-1H-indole-5-carbonitrile] | 1 µM
3 | Cn1cc(C2=C(c3cn(C)c4cc([N+](=O)[O-])ccc34)C(=O)NC2=O)c2cc([N+](=O)[O-])ccc21 [H NO2 H NO2, 3-(1-methyl-5-nitro-1H-indol-3-yl)-4-(1-methyl-6-nitro-1H-indol-3-yl)-pyrrole-2,5-dione] | 0.83 µM
4 | COc1ccc2c(C3=C(c4cn(C)c5cc(C)ccc45)C(=O)NC3=O)cn(C)c2c1 [H H CH3 OCH3, 3-(1,6-dimethyl-1H-indol-3-yl)-4-(6-methoxy-1-methyl-1H-indol-3-yl)-pyrrole-2,5-dione] | 0.02 µM
5 | COc1ccc2c(c1)c(C1=C(c3cn(C)c4cc(SC)ccc34)C(=O)NC1=O)cn2C [H CH3 O H CH3 S, 3-(5-Methoxy-1-methyl-11H-indol-3-yl)-4-(1-methyl-6-methylsulfanyl-1H-indol-3-yl)-pyrrole-2,5-dione] | 0.2 µM
6 | COc1ccc2c(C3=C(c4cn(C)c5cccc(F)c45)C(=O)NC3=O)cn(C)c2c1 [F H H CH3 O, 3-(4-Fluoro-1-methyl-1H-indol-3-yl)-4-(6-methoxy-1-methyl-1H-indol-3-yl)-pyrrole-2,5-dione] | 0.2 µM
7 | COc1ccc2c(C3=C(c4cn(C)c5cc(NC(C)=O)ccc45)C(=O)NC3=O)cn(C)c2c1 [H H CH3 CONH CH3 O, N-{3-[4-(6-Methoxy-1-methyl-1H-indol-3-yl)-2,5-dioxo-2,5-dihydro-1H-pyrrol-3-yl]-1-methyl-1H-indol-6-yl}-acetamide] | 0.07 µM

Continued by falling IC50, values first:

Row | IC50 | SMILES
8 | 0.7 µM | Cn1cc(C2=C(c3cn(C)c4cc(N)ccc34)C(=O)NC2=O)c2ccc(N)cc21 [H H NH2 NH2, 3,4-bis-(1-methyl-6-amino-1H-indol-3-yl)-pyrrole-2,5-dione]
9 | 0.4 µM | Cc1ccc2c(C3=C(c4cn(C)c5ccc(Cl)cc45)C(=O)NC3=O)cn(C)c2c1 [H Cl H CH3, 3-(5-Chloro-1-methyl-1H-indol-3-yl)-4-(1,6-dimethyl-1H-indol-3-yl)-pyrrole-2,5-dione]
10 | 0.4 µM | COc1cccc2c1c(C1=C(c3cn(C)c4cc([N+](=O)[O-])ccc34)C(=O)NC1=O)cn2C [CH3 O H H NO2, 3-(4-Methoxy-1-methyl-1H-indol-3-yl)-4-(1-methyl-6-nitro-1H-indol-3-yl)-pyrrole-2,5-dione]
11 | 0.2 µM | CCOc1ccc2c(C3=C(c4cn(C)c5cccc(Br)c45)C(=O)NC3=O)cn(C)c2c1 [Br H H EtO, 3-(4-Bromo-1-methyl-1H-indol-3-yl)-4-(6-ethoxy-1-methyl-1H-indol-3-yl)-pyrrole-2,5-dione]
12 | 0.07 µM | Cn1cc(C2=C(c3cn(C)c4cc([N+](=O)[O-])ccc34)C(=O)NC2=O)c2ccc(F)cc21 [H H NO2 F, 3-(6-fluoro-1-methyl-1H-indol-3-yl)-4-(1-methyl-6-nitro-1H-indol-3-yl)-pyrrole-2,5-dione]
13 | 0.02 µM | COc1ccc2c(C3=C(c4cn(C)c5cc(F)ccc45)C(=O)NC3=O)cn(C)c2c1 [H H F OCH3, 3-(6-fluoro-1-methyl-1H-indol-3-yl)-4-(6-methoxy-1-methyl-1H-indol-3-yl)-pyrrole-2,5-dione]
14 | 0.012 µM | Cn1cc(C2=C(c3cn(C)c4cc([N+](=O)[O-])ccc34)C(=O)NC2=O)c2ccc(NC(=O)C(F)(F)F)cc21 [H H CF3 CONH NO2, N-{1-methyl-3-[4-(1-methyl-6-nitro-1H-indol-3-yl)-2,5-dioxo-2,5-dihydro-1H-pyrrol-3-yl]-1H-indol-3-yl}-trifluoroacetamide]
15 | 0.007 µM | COc1ccc2c(C3=C(c4cn(C)c5cc([N+](=O)[O-])ccc45)C(=O)NC3=O)cn(C)c2c1 [H H OCH3 NO2, 3-(6-methoxy-1-methyl-1H-indol-3-yl)-4-(1-methyl-6-nitro-1H-indol-3-yl)-pyrrole-2,5-dione]
16 | 0.005 µM | COc1ccc2c(C3=C(c4cn(C)c5cc(C#N)ccc45)C(=O)NC3=O)cn(C)c2c1 [H H CN OCH3, 3-[4-(6-methoxy-1-methyl-1H-indol-3-yl)-2,5-dioxo-2,5-dihydro-1H-pyrrole-3-yl]-1-methyl-indol-6-carbonitrile]
